Test results: US11820760B2, “Crystalline polymorphs of Bruton's tyrosine kinase inhibitors” (BIOGEN MA INC., priority 2018, dated 2023)

Tests used:
Type in all cases: physicochemical
[1] = Variable temperature powder X-ray diffraction (VT-PXRD) of crystalline forms
Experimental: Crystallinity of the compound was studied using a XRD-D8 X-ray powder diffractometer using Cu Ka radiation (Bruker, Madison, Wis.). The instrument is equipped with a long fine focus X-ray tube. The tube voltage and amperage were set to 40 kV and 40 mA, respectively. The divergence and scattering slits were set at 1° and the receiving slit was set at 0.15 mm. Diffracted radiation was detected by a Lynxeye detector. A θ-2θ continuous scan at 1.6°/min from 3 to 42° 2θ was used. The sample was prepared for analysis by placing it on a zero background plate. Variable temperature powder X-ray diffraction (VT-PXRD) of Form B was performed by hearing a sample of Form B to 130° C. under N2, following by cooling back down to 30° C. […] (losing all water at this temperature) under N2, indicating Form B is a hygroscopic anhydrate. Variable temperature powder X-ray diffraction (VT-PXRD) of Form C was performed. A sample of Form C was dehydrated by purging the sample under N2 at 30° C. for 20 minutes and then heated to 100° C. under N2 followed by cooling back down to 30° C. and exposed to air for 20 minutes.

[2] = PXRD comparison of Form H before and after heating; conditions: heated to 125° C.
Experimental: Crystallinity of the compound was studied using a XRD-D8 X-ray powder diffractometer using Cu Ka radiation (Bruker, Madison, Wis.). The instrument is equipped with a long fine focus X-ray tube. The tube voltage and amperage were set to 40 kV and 40 mA, respectively. The divergence and scattering slits were set at 1° and the receiving slit was set at 0.15 mm. Diffracted radiation was detected by a Lynxeye detector. A θ-2θ continuous scan at 1.6°/min from 3 to 42° 2θ was used. The sample was prepared for analysis by placing it on a zero background plate. A sample of Form H was heated to 125° C. and PXRD pattern was compared with PXRD pattern for the sample before heating.

[3] = PXRD of Form P after grinding in water; conditions: Form P with 2.9 wt % water ground in water with mortar and pestle to a viscous slurry
Experimental: Crystallinity of the compound was studied using a XRD-D8 X-ray powder diffractometer using Cu Ka radiation (Bruker, Madison, Wis.). The instrument is equipped with a long fine focus X-ray tube. The tube voltage and amperage were set to 40 kV and 40 mA, respectively. The divergence and scattering slits were set at 1° and the receiving slit was set at 0.15 mm. Diffracted radiation was detected by a Lynxeye detector. A θ-2θ continuous scan at 1.6°/min from 3 to 42° 2θ was used. The sample was prepared for analysis by placing it on a zero background plate. Crystalline Form P with 2.9 wt % of water were prepared using similar procedures as described in Method A. Dichloromethane (15V) and n-propyl acetate (35 V) were used as solvents and the DSC/TGA graph is shown in FIG. 25. Crystalline Form P with 2.9 wt % of water was ground in water using a mortar and pestle to produce a viscous slurry. The sample was rapidly prepared, covered with Kapton film and analyzed by PXRD.

Cn1cc(Nc2nccc(-c3ccc4c(c3)CN(C3COC3)CC[C@H]4NC(=O)c3cn(C(C)(C)C)nn3)n2)cn1 [Form B, (R)-1-(tert-butyl)-N-(8-(2-((1-methyl-1H-pyrazol-4-yl)amino)pyrimidin-4-yl)-2-(oxetan-3-yl)-2,3,4,5-tetrahydro-1H-benzo[c]azepin-5-yl)-1H-1,2,3-triazole-4-carboxamide]
form conversion after heating (VT-PXRD) ([1]; heated to 130° C. under N2, then cooled back to 30° C.): No form conversion

Cn1cc(Nc2nccc(-c3ccc4c(c3)CN(C3COC3)CC[C@H]4NC(=O)c3cn(C(C)(C)C)nn3)n2)cn1 [Form C, (R)-1-(tert-butyl)-N-(8-(2-((1-methyl-1H-pyrazol-4-yl)amino)pyrimidin-4-yl)-2-(oxetan-3-yl)-2,3,4,5-tetrahydro-1H-benzo[c]azepin-5-yl)-1H-1,2,3-triazole-4-carboxamide]
form conversion after dehydration (VT-PXRD) ([1]; purging with N2 for 20 minutes at 30° C.): converted to Form L

Cn1cc(Nc2nccc(-c3ccc4c(c3)CN(C3COC3)CC[C@H]4NC(=O)c3cn(C(C)(C)C)nn3)n2)cn1 [Form H, (R)-1-(tert-butyl)-N-(8-(2-((1-methyl-1H-pyrazol-4-yl)amino)pyrimidin-4-yl)-2-(oxetan-3-yl)-2,3,4,5-tetrahydro-1H-benzo[c]azepin-5-yl)-1H-1,2,3-triazole-4-carboxamide]
form conversion after heating (PXRD before/after) [2]: no form conversion

Cn1cc(Nc2nccc(-c3ccc4c(c3)CN(C3COC3)CC[C@H]4NC(=O)c3cn(C(C)(C)C)nn3)n2)cn1 [Form L, (R)-1-(tert-butyl)-N-(8-(2-((1-methyl-1H-pyrazol-4-yl)amino)pyrimidin-4-yl)-2-(oxetan-3-yl)-2,3,4,5-tetrahydro-1H-benzo[c]azepin-5-yl)-1H-1,2,3-triazole-4-carboxamide]
form conversion after exposure to air (VT-PXRD) ([1]; exposure to air for about 2.5 hours, re-absorbs water): converts back to Form C

Cn1cc(Nc2nccc(-c3ccc4c(c3)CN(C3COC3)CC[C@H]4NC(=O)c3cn(C(C)(C)C)nn3)n2)cn1 [Form P, (R)-1-(tert-butyl)-N-(8-(2-((1-methyl-1H-pyrazol-4-yl)amino)pyrimidin-4-yl)-2-(oxetan-3-yl)-2,3,4,5-tetrahydro-1H-benzo[c]azepin-5-yl)-1H-1,2,3-triazole-4-carboxamide]
PXRD peak shifts after grinding in water [3]: No peak shifts
